Entries after “also recorded” stand apart in the source; their conditions may differ.
Columns and labels:
[1] = molecular target: T1, LXRα (Homo sapiens, UniProt Q13133); experiment: activity on nuclear receptor LXRα
T1 sequence (Q13133 1-447): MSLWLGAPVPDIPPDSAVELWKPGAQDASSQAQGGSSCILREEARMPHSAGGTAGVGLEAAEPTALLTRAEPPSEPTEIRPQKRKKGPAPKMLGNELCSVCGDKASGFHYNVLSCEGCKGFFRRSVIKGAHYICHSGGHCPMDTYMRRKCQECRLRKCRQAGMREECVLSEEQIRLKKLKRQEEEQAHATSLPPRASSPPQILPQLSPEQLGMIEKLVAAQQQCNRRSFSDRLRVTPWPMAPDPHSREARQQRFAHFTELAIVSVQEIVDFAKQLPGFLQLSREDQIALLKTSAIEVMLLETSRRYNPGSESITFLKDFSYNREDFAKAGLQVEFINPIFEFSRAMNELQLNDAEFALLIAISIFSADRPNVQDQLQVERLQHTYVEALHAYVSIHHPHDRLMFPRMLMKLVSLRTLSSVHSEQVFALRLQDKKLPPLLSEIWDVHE

[2] = system: inbred 129S1 Col4a3−/− mice; experiment: Mouse Alport model of kidney fibrosis, Study 2; format: in vivo
Text: (§1) Mice with mutations in one of the collagen IV genes of glomerular basement membrane collagen, Collagen IV-α3/α4/α5, have defects in glomerular function with development of kidney fibrosis. These mice develop renal dysfunction and die prematurely of renal failure with specific timing dependent on the strain background upon which the mutation is present.
Generation of Col4a3^−/−mice was as described in Miner, J. H., and Sanes, J. R. (1996), J. Cell Biol. 135:1403-1413. Studies of Compound 1 efficacy in Alport models of kidney fibrosis were performed using mice on two different strain backgrounds. Study 1 used B 6129S1 F1 hybrid Alport mice that usually reach end stage renal disease (ESRD) at about 17 to 19 weeks. These were generated by crosses between C57BL6/J (B 6) and 129S1/Sv1mJ (129S1) Alport mice. Study 2 used inbred 129S1 Col4a3^−/− mice, which usually reach ESRD at about 11 to 13 weeks. […]
(§2) Urine and blood samples were collected at the time points of 12, 15, and 17-weeks of age for B6129S1 hybrid Col4a3^+/−, −/− mice and at 8 and 10-weeks of age for inbred 129S1 Col4a3^−/− mice. Urinary protein concentration was determined by Bradford assay (Cat. 5000006, Bio-Rad) and comparison with bovine serum albumin standards. Urinary creatinine was measured by QuantiChrom™ Creatinine Assay Kit (Cat.DICT-500, BioAssay systems) and used to normalize the amount of urine. Blood urea nitrogen (BUN) levels were measured by QuantiChrom™ Urea Assay Kit (Cat.DUR2-100, BioAssay systems). Urine and blood samples were stored at −20° C. and −80° C. respectively after collection and subsequently analyzed.
For biochemistry, kidneys were collected from 15 and 17-week old B 6129S1 hybridCol4a3^+/−, −/− mice; and from 8 and 10-week old inbred 129S1 Col4a3^−/− mice. […] Protein concentration was measured by BCA assays (Cat. 23227, ThermoFisher). […]
All data are presented as mean±SEM. Statistical significance was determined by Oneway ANOVA with Dunnett's multiple comparison for more than three group comparison and Student's t test for two group comparison. […]

[3] = system: 2K1C rat clipped kidney; details: cited from earlier work
[4] = system: B6129S1 hybrid Col4a3−/− mice; experiment: Mouse Alport model of kidney fibrosis, Study 1; format: in vivo
Text: as §1
Generation of Col4a3^−/−mice was as described in Miner, J. H., and Sanes, J. R. (1996), J. Cell Biol. 135:1403-1413. Studies of Compound 1 efficacy in Alport models of kidney fibrosis were performed using mice on two different strain backgrounds. Study 1 used B 6129S1 F1 hybrid Alport mice that usually reach end stage renal disease (ESRD) at about 17 to 19 weeks. These were generated by crosses between C57BL6/J (B 6) and 129S1/Sv1mJ (129S1) Alport mice. Study 2 used inbred 129S1 Col4a3^−/− mice, which usually reach ESRD at about 11 to 13 weeks.
Study 1—B6129S1 hybrid Col4a3^−/− mice were given administrations via intraperitoneal injection of either vehicle (PBS) or Compound 1 (10 mg/kg) once a day from 6 to 17-weeks of age. There were 12 mice per group. B6129S1 hybrid Col4a3^+/− mice were used as non-disease controls. Compound 1 was dissolved at 2 mg/mL in PBS twice a week. The dosing volume was calculated as body weight (g)*5 μL (e.g. body weight 20 g: 20*5=100 μL).
as §2
For biochemistry, kidneys were collected from 15 and 17-week old B 6129S1 hybridCol4a3^+/−, −/− mice; and from 8 and 10-week old inbred 129S1 Col4a3^−/− mice. Collected kidneys were quickly frozen by liquid nitrogen and stored at −80° C. Kidneys were minced in cold PBS containing protease inhibitor (Cat. 786-108, G-BIOSCIENCES), centrifuged, and supernatants were removed. Tissue pellets were washed with PBS and centrifuged again. Tissue pellets were lysed with RIPA buffer containing protease inhibitor and phosphatase inhibitor (Sigma-Aldrich, Cat. P5726). Protein concentration was measured by BCA assays (Cat. 23227, ThermoFisher). The following antibodies were used in western blotting: anti-kidney injury molecule 1 (KIM1) antibody (AF1817, R&D), anti-Lipocalin2/NGAL antibody (ab70287, abcam), anti-phosho-STAT3 antibody (#9145, CST), anti-CTGFantibody (sc-365970, Santa Cruz), anti-TGFb 1,2,3 antibody (MAB1835, R&D), anti-Fibronectin antibody (F3648,Sigma), anti-alpha smooth muscle acting (SMA) antibody (F3777, Sigma), anti-Collagen I antibody (1310-01, SouthernBiotech), anti-Collagen IV antibody (1340-01, SouthernBiotech), anti-alpha Tubulin antibody (#2144, CST).
For all groups, analysis includes measurement of blood urea nitrogen and urinary albumin: creatinine ratios. The analysis also includes renal histopathology (glomerulosclerosis and tubulo-interstitial fibrosis; and analysis of glomerular basement membrane and podocyte ultrastructure. Plasma samples are analyzed for Compound 1 concentration to ensure adequate circulating levels for efficient target engagement. qRT-PCR is performed using RNA from several relevant tissues to examine expression of known transcriptional targets of PPARδ (e.g., PGC1α).
All data are presented as mean±SEM. Statistical significance was determined by Oneway ANOVA with Dunnett's multiple comparison for more than three group comparison and Student's t test for two group comparison.

[5] = 3 or 10 mg/kg i.p. once a day, samples at 8 and 10-weeks of age, data not shown
[6] = 10 mg/kg i.p., compared with vehicle-treated mice
[7] = whole kidneys, western blotting

With Cc1cc(OC/C=C(/c2ccc(F)cc2)c2ccc(C#CCN3CCOCC3)cc2)ccc1OCC(=O)O [Compound 1, (E)-[4-[3-(4-Fluorophenyl)-3-[4-[3-(morpholin-4-yl)propynyl]phenyl]allyloxy]-2-methyl-phenoxy]acetic acid] the “activity on LXRα” value [1] was “did not show any”, the kidney dysfunction ([2]; 3 or 10 mg/kg i.p. once a day from 4 to 10-weeks of age) was “did not attenuate” and the BUN [2, 5] was “did not result in any significant reduction”. The proteinuria [2, 5] was “did not result in any significant reduction”, the “levels of MCAD, COXIV, TFAM and Parkin proteins and AMPK activation” value ([3]; 2K1C rat kidneys) was “remained at the physiological levels” and the “mitochondrial biogenesis and autophagy (PGC1-a, LC3-II, ATG5)” value ([3]; 2K1C rat kidneys) was “inhibited similarly in both treated and untreated”. The “BNIP3 protein in the mitochondrial fraction” value ([3]; 2K1C rat, compared to untreated animals) was “decreased notably”, the “nuclear amounts of oxidative stress-responsive proteins NRF1 and NRF2” value ([3]; 2K1C rat, treated kidneys) was “below physiological levels” and the “histochemical features of necrosis in clipped kidney” value ([3]; 2K1C rat, treated vs untreated clipped kidneys) was “did not exhibit any histochemical features of necrosis”. For the same compound, the “fibrotic lesions in clipped kidney” value ([3]; 2K1C rat) was “present only in perivascular areas”, the “oxidative stress in kidneys” value ([3]; 2K1C rat) was “attenuated” and the kidney dysfunction ([4]; 10 mg/kg i.p. once a day from 6 to 17-weeks of age) was “attenuated”. For the same compound, the “blood urea nitrogen (BUN)” value ([4]; 10 mg/kg i.p. once a day, at 12 and 17-weeks of age) was “suppressed the increase”, the proteinuria ([4]; 10 mg/kg i.p. once a day, at 17-weeks of age (late stage)) was “suppressed; also recorded: significantly reduced” and the renal histology ([4]; 10 mg/kg i.p., H&E and Trichrome kidney sections) was “slightly improved”. The extent of fibrosis [4, 6] was “slightly decreased; also recorded: decreased”, the “necrotic regions in the cortex” value [4, 6] was “decreased” and the “infiltration of inflammatory cells” value ([4]; 10 mg/kg i.p., microscopic examination of kidney sections) was “slightly reduced”. For the same compound, the CTGF expression [4, 7] was “attenuated”, the “Collagen I expression” value [4, 7] was “decreased” and the “Collagen IV expression” value [4, 7] was “decreased”. The NGAL protein level [4, 7] was “decreased”, the alpha-SMA expression [4, 7] was “decreased” and the fibronectin expression [4, 7] was “not changed”. For the same compound, the phosho-Stat3 expression [4, 7] was “attenuated” and the KIM-1 protein level ([4]; whole kidneys, western blotting, vs vehicle) was “not changed”.

— US20220370467A1, “USING OF A PPAR-DELTA AGONIST IN THE TREATMENT OF KIDNEY DISEASE” (Reneo Pharmaceuticals, Inc., priority 2019, published 2022)
